Columns and labels:
[1] = target: T1, androgen receptor (AR) (Homo sapiens, UniProt P10275); test: Binding affinity for the androgen receptor
T1 sequence (P10275 1-920): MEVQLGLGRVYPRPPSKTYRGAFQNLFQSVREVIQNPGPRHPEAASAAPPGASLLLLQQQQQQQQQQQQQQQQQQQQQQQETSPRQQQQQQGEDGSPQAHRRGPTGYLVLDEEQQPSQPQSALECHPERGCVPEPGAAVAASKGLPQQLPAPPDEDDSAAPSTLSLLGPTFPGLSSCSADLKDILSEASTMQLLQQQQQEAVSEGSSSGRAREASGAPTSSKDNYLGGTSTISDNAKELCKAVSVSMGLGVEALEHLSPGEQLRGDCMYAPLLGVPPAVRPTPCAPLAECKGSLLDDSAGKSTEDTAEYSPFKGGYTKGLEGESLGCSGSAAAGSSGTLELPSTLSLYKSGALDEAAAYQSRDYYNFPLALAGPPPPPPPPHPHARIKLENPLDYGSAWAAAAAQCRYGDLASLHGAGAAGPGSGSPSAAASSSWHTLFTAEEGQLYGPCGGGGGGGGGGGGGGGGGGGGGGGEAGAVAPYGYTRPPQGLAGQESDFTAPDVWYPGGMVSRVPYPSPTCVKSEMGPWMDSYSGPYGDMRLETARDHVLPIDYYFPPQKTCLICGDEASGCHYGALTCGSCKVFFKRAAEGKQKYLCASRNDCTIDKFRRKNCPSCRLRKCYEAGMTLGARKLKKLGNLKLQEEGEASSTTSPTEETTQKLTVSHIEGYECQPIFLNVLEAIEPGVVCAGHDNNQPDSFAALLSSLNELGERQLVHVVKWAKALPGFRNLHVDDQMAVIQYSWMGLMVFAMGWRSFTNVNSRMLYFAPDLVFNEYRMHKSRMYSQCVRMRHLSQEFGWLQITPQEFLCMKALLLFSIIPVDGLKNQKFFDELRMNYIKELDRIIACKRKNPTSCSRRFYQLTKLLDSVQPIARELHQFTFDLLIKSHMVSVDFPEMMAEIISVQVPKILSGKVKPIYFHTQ

[2] = tested on: PR-A; assay type: cell-based
Experimental: The method for screening for PR isoform-specific progestins according to the present invention is carried out with first and second SK-N-MC cells stably transfected with a plasmid expressing the HPR-A (first cells) or the hPR-B (second cells) and the LUC reporter gene linked to the hormonally responsive MTV promoter.
The cells are cultured in Minimum Essential Medium with Earl's Salts (S-MEM, without L-glutamine; Gibco BRL, no. 21090-022), supplemented with 10% fetal calf serum (FCS), penicillin 100U/streptomycin 100 μg/ml (Biochrom, no. A2213), L-glutamine 4 mmol/l (Gibco BRL, no. 25030-024), sodium pyruvate 1 mmol/l (Biochrom, no. L0473) and 1×non-essential amino acids (Biochrom, no. K0293) at a temperature of 37° C. and in an atmosphere of 5% carbon dioxide.
For the transcription assay, the cells are seeded onto 96-well dishes (2×10^4 cells/dish) and cultured in a medium as described above, with the exception that the FCS is replaced by a 3% charcoal stripped FCS. 48 hours later, cells are contacted with prediluted test compounds. For determination of agonistic activity, cells are cultured in the presence of 6 increasing concentrations (10^−6 to 10^−11 mol/l) of test progestins. As a positive control for reporter gene induction cells are treated with 10^−6 to 10^−11 mol/l R5020 (promegestone). As a negative control for reporter gene induction, cells are cultured in 1% ethanol.
After incubation with test progestins for 24 hours, the medium is removed and cells are lysed with 20 μl of lysis buffer (Luciferase Assay System E 153A; Promega) and under agitation of the plate for 101 min. After addition of 30 μl of luciferase reagent (Luciferase Assay System E 151A+152A; Promega) within 30 seconds per plate, the activity of the luciferase reporter gene product is determined in the cell lysates by means of a Microlite ML 3000 microtiter plate luminometer (Dynatech) in cycle mode.
Evaluation of the response gives the efficacy [%], and evaluation of the EC50s values gives the potency [nM]. Calculation of the agonistic activity is conducted as follows:
The LUC activity [%] for the measured data points is calculated as follows:
[formula] wherein CI=100% stimulation (R5020, 10^−7 mol/l) and CO=0% stimulation (ethanol, 1%).
Thus, the efficacy [%] is calculated according to: […]
The potency [nM], i.e. the EC50, is determined graphically.

[3] = target: T2, estrogen receptor-α (ERα) (Homo sapiens, UniProt P03372); test: Binding to the estrogen receptor-α in vitro
T2 sequence (P03372 1-595): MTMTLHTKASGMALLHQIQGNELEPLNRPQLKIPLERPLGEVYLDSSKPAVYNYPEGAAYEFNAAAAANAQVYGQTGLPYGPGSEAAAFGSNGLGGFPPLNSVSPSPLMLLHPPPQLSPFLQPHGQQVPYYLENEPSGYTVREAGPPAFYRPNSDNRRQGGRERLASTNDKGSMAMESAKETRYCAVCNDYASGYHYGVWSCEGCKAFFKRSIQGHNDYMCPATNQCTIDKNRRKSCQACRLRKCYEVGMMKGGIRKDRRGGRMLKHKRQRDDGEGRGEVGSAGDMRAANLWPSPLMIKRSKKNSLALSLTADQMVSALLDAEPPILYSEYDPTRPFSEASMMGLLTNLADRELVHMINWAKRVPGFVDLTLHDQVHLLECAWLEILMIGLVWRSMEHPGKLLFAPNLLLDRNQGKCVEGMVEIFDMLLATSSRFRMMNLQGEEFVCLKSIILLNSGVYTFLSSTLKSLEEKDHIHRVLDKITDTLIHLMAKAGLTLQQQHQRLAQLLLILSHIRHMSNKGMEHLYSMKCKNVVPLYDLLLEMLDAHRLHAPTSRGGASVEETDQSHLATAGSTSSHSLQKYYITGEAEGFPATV

O=C1OCc2cc(NC(=O)C(O)(CC3(c4cc(C(F)(F)F)ccc4F)CC3)C(F)(F)F)ccc21 (single isomer, unassigned; (+)) [((+)-1), (+)-5-{2-hydroxy-3-[1-(2-fluoro-5-trifluoromethylphenyl)-cyclopropyl]-2-trifluoromethyl-propionylamino}-phthalide]
Binding affinity for the androgen receptor (AR) [1]: moderate binding affinity
Δ agonism efficacies (A-B) ([2]; PR-A efficacy minus PR-B efficacy): 64
PR isoform selectivity in words ([2]; PR-A versus PR-B): selective PR-A agonist
Affinity for the estrogen receptor-α (ERα) [3]: negligible affinity

From patent US7388006B2, “Non-steroidal progesting” (Bayer Schering Pharma AG, priority 2002, dated 2008)
